Entries after “also recorded” stand apart in the source; their conditions may differ.

Test [1] relates to collagen-induced arthritis in mice. The test is described as follows: Collagen-induced arthritis in mice: arthritis score. The class given is in vivo, male DBA/1J mice. As to conditions: for Arthritis score: mean ± standard error (n = 8-10). The source says:
(§1) According to the method of Courtenay et al. (Courtenay, J. S. et al.: Immunization against heterologous type II collagen induces arthritis in mice. Nature, 283:666, 1980), male DBA/1J mice (CHARLES RIVER JAPAN INC.) were sensitized with bovine type II collagen to induce collagen-induced arthritis (rheumatoid arthritis). After the onset of arthritis, diethyl acetoacetylcromoglycate was orally administered and its inhibitory effect was examined. The method is detailed in the following.
Male DBA/1J mice (8-week-old) were pre-bred for one week and divided into the following 3 groups based on body weight (8-10 per group).
Bovine type II collagen (2 mg) was dissolved in 0.01M acetic acid (1 ml) and suspended in an equivalent amount of Freund's complete adjuvant, and 0.1 ml thereof was intradermally injected to the control group and treated group at 9 weeks of age at the base of the tail, followed by the second injection three weeks later at 12 weeks of age.
Starting from day 31 after the initial injection of collagen till the end of the treatment, the mice of each group were scored (arthritis score) twice a week for the levels of redness, swelling and stiffness of four limbs by a blind test method. The scores were taken according to a method similar to the method of Bjork et al. (Bjork, J. and Kleinau, S.: Paradoxical effects of LS-2616 (Linomide) treatment in the type II collagen arthritis model in mice, Agents and Actions, 27:319-321, 1989.), wherein normal was rated 0 point, inflammation on one digit was 1 point, inflammation on two or more digits and normal metacarpal region and metatarsal region of the limbs, or inflammation on one digit and metacarpal region and metatarsal region of the limbs was 2 points, and inflammation on digits and metacarpal region and metatarsal region of the limbs was 3 points, each mouse scoring 0 to 12 points in total.
The treatment was continued for 6 weeks from day 41 from the initial injection of collagen. […]

Test [2] concerns anti-bovine type II collagen antibody. The test is described as follows: Anti-bovine type II collagen antibody titer in blood (ELISA) in collagen-induced arthritis mice. It counts as in vivo, male DBA/1J mice. The settings on record: 100 mg/kg/day orally.
Text: as §1
Male DBA/1J mice (8-week-old) were pre-bred for one week and divided into the following 3 groups based on body weight (8-10 per group). […]
At day 42 after the initiation of treatment, blood was taken from carotid artery and the mice were exsanguinated to death under ether anesthesia. The anti-bovine type II collagen antibody titer in blood was determined by the ELISA method according to the method of Stuart et al. (Stuart, J. M. et al.: Nature and specificity of the immune response to collagen in type II collagen-induced arthritis in mice, J. Clin. Invest., 69:673-683, 1982).
(In an ELISA, binding on a coated surface is turned into a signal by an enzyme label.)

The test system of test [3] is Type IV allergic dermatitis. The test is described as follows: Type IV allergic dermatitis (picryl chloride) auricle swelling. The class given is in vivo, male ICR mice. The procedure: Male 6-week-old ICR mice (Clea Japan, Inc.) were divided into two groups of control group and administration group containing 8-9 mice each. A 0.5% methylcellulose solution (10 ml/kg) was forcefully administered orally to the control group and diethyl acetoacetylcromoglycate (100 mg/kg) was forcefully administered orally to the administration group twice a day for 14 days for each group. After the initial administration at day 8 of the administration, pentobarbital sodium (55 mg/kg) was intraperitoneally administered to each mouse and the abdomen was shaved. 5% Picryl chloride (50 μl) dissolved in acetone-olive oil (mixing ratio, 1:4) was applied to the shaved portion (diameter about 2 cm). After the initial administration at day 5 after the application (day 12 of administration), all mice were anesthetized with ether and the thickness of both auricles was measured with a dial thickness gauge (Mitutoyo Co.). […] After 48 hours from this antigen challenge, the thickness of both auricles was measured with a dial thickness gauge under ether anesthesia.
The difference between the thickness of the auricle applied with the solvent and the thickness of the auricle applied with the antigen was measured for each mouse.

Test [4] concerns type I and type IV allergic dermatitis. The test can be described thus: Type I and Type IV allergic dermatitis (repeat application of DNFB) auricle swelling. The settings on record: 100 mg/kg orally twice a day; for Increase in thickness of auricle by repeat application of 0.2% DNFB solution: mean ± standard error. It counts as in vivo, male BALB/c mice. From the text:
According to the method of Nagai et al., (Naoki Inagaki and Hiroichi Nagai, The 8th Spring Meeting of Japanese Society of Allergology, 1996), the inhibitory action of diethyl acetoacetylcromoglycate on type I and type IV allergic dermatitis was examined.
According to this method, a type I allergic reaction is induced in addition to a type IV allergic reaction due to repeat contact sensitization with antigen. […] The method is described in detail in the following.
Male 6-week-old BALB/c mice (Japan SLC, Inc.) were divided into two groups of control group and administration group including 10 mice each. A 0.5% methylcellulose solution (10 ml/kg) was forcefully administered orally to the control group and diethyl acetoacetylcromoglycate (100 mg/kg) was forcefully administered orally to the administration group twice a day for 36 days for each group. The thickness of both auricles of each mouse was measured with a dial thickness gauge (Mitutoyo Co.) under ether anesthesia before initial administration on day 1 after administration. After the initial administration on day 8 of the administration, the thickness of both auricles of each mouse was measured with a dial thickness gauge under ether anesthesia. 0.2% Dinitrofluorobenzene (DNFB) dissolved in acetone-olive oil (mixing ratio 3:1) was applied by 25 μl to the left and right auricles. After 24 hours from the application, the thickness of both auricles of each mouse was measured under ether anesthesia with a dial thickness gauge. Thereafter, similar manipulation was repeated 4 times at a week interval. At the 5th application, the thickness of both auricles was also measured at 1 and 4 hours after the application.
Changes in the thickness of both auricles of each mouse were calculated from the measurement values of the thickness of the both auricles before the initial application. The average of changes in the thickness of the left and right auricles of each mouse was taken as the variation of the mouse.

On to `CCOC(=O)c1cc(=O)c2c(OCC(COc3cccc4oc(C(=O)OCC)cc(=O)c34)OC(=O)CC(C)=O)cccc2o1` [Example 1, Diethyl Acetoacetylcromoglycate], for which the “effect on arthritis score (in words)” value in test [1] (100 mg/kg/day orally, day 38 after start of treatment, U-test with control group) is recorded as “inhibition of the symptoms of collagen-induced arthritis (rheumatoid arthritis); also recorded: significant improvement in the arthritis scores”. For the same compound, the Arthritis score is listed as 6.36 ± 1.30 in test [1] (100 mg/kg/day orally, day 79 after initial injection of collagen (day 38 after starting treatment), control 10.70 ± 0.49, p < 0.01) and 1.80 ± 0.61 in test [1] (day 38 after initial injection of collagen (3 days before treatment)). The “effect on anti-bovine type II collagen antibody titer in blood (in words)” value in test [2] (day 42 after initiation of treatment, ANOVA with control group) is reported as “significant decrease in anti-bovine type II collagen antibody titer in blood; also recorded: inhibition of an increase in the anti-bovine collagen antibody titer in blood”. Further, the “Anti-bovine type II collagen antibody titer in blood” value in test [2] (day 83 after initial injection of collagen (day 42 after starting treatment), mean ± standard error (n = 8-10), control 0.301 ± 0.005, p < 0.01) was found to be 0.203 ± 0.010. The “Increase in thickness of auricle after application of antigen” value in test [3] (100 mg/kg orally twice a day for 14 days, 48 hr after applying 0.5% picryl chloride solution, mean ± standard error (n = 8-9), control 0.045 ± 0.003, p < 0.01) was determined as 0.031 ± 0.003 mm. Further, the “effect on swelling of the auricle (in words)” value is on record as “significant inhibitory action on the swelling of the auricle” in test [3] (100 mg/kg orally twice a day, 48 hours after picryl chloride challenge, t-test with control group) and “significant inhibitory action on the swelling of the auricle after the second application” in test [4] (after the second application of DNFB, t-test with control group). Further, the “Increase in thickness of auricle by repeat application of 0.2% DNFB solution” value in test [4] (1 hr after 5th application (type I allergic reaction), control 0.098 ± 0.012, p < 0.05) was determined as 0.058 ± 0.007 mm; in test [4] (4 hr after 5th application, control 0.063 ± 0.007), 0.056 ± 0.007 mm; in test [4] (24 hr after 1st application, control 0.011 ± 0.002), 0.012 ± 0.002 mm; in test [4] (24 hr after 2nd application, control 0.048 ± 0.004, p < 0.05) it was 0.037 ± 0.003 mm; in test [4] (24 hr after 3rd application, control 0.092 ± 0.009, p < 0.01), 0.061 ± 0.005 mm; in test [4] (24 hr after 4th application, control 0.141 ± 0.012, p < 0.01), 0.095 ± 0.009 mm. In addition, the “Increase in thickness of auricle by repeat application of 0.2% DNFB solution” value in test [4] (24 hr after 5th application, control 0.182 ± 0.015, p < 0.01) is 0.122 ± 0.010 mm; in test [4] (before 1st application, control 0.008 ± 0.003) it was 0.008 ± 0.002 mm; in test [4] (before 2nd application, control 0.033 ± 0.003), 0.029 ± 0.003 mm; in test [4] (before 3rd application, control 0.042 ± 0.005), 0.035 ± 0.003 mm; in test [4] (before 4th application, control 0.049 ± 0.004), 0.040 ± 0.005 mm; in test [4] (before 5th application, control 0.059 ± 0.006), 0.048 ± 0.005 mm. Moreover, the “effect on swelling of the auricle, type I allergic reaction (in words)” value in test [4] (one hour after the fifth application of DNFB) is “significant inhibitory action on the swelling of the auricle”.

These data come from US6262108A, “Medicinal use of cromoglycic acid compounds” (Kyoto Pharmaceutical Industries, Ltd., priority 1997, dated 2001).
